In PubChem BioAssay AID493062 (The Scripps Research Institute Molecular Screening Center, 2011) one finds EC50 data, which are given here for 36 compounds.

Bounds are passed on as bounds.

One experiment concerns 2B4/MCL-1. Briefly: MCL-1-selective apoptosis induction in 2B4 cells – cell-based, fluorescence, assay provider data, selectivity assay for MCL1-BIM inhibitor project, late-stage follow-up (AID 493062). The following applies: 2B4/MCL-1 caspase activation fluorescence.
The next experiment deals with 2B4/BCL-2. The description is as above. To be noted: 2B4/MCL-1 caspase activation fluorescence.

As to `NS(=O)(=O)c1ccc(CCNC(=O)c2cc(-c3ccco3)nc3ccccc23)cc1`, the EC50 in the experiment with 2B4/MCL-1 and with 2B4/BCL-2 was above 25 µM throughout.
Regarding `CN(C)C(CNC(=O)c1cc(-c2ccco2)nc2ccccc12)c1ccccc1` (configuration not stated), the EC50 with 2B4/MCL-1 and with 2B4/BCL-2 was above 25 µM each time.
Consider `COc1ccc(Cc2nnc(NC(=O)Cc3cccs3)s2)cc1`, for which the EC50 in the experiment on 2B4/MCL-1 and in the experiment on 2B4/BCL-2 was above 25 µM in each case.
Consider `CCc1nnc(NC(=O)c2cc(-c3ccc(C)o3)nc3ccccc23)s1`, for which the EC50 in the experiment on 2B4/MCL-1 and in the experiment with 2B4/BCL-2 was above 25 µM throughout.
Take `COc1ccc(Cc2nnc(NC(=O)Cc3ccc(N(C)C)cc3)s2)cc1OC`: the EC50 in the experiment with 2B4/MCL-1 and in the experiment with 2B4/BCL-2 was above 25 µM each time.
As to `CCCC(=O)Nc1nnc(Cc2ccccc2)s1`, the concentration for a half-maximal effect (EC50) in the experiment with 2B4/MCL-1 and with 2B4/BCL-2 was above 25 µM throughout.
As to `Cc1cccc(NC(=O)c2cc(-c3ccco3)nc3ccccc23)n1`, the EC50 in the experiment with 2B4/MCL-1 and with 2B4/BCL-2 was above 25 µM each time.
With `COc1cccc(NC(=O)CN(C)C(=O)c2cc(-c3ccc(C)o3)nc3ccccc23)c1`, the EC50 in the experiment with 2B4/MCL-1 and in the experiment with 2B4/BCL-2 was above 25 µM each time.
`Cc1ccnc(NC(=O)c2cc(-c3ccco3)nc3ccc(Br)cc23)c1`: the EC50 in the experiment with 2B4/MCL-1 was 12 µM; with 2B4/BCL-2, above 25 µM.
As for `Cc1ccnc(NC(=O)c2cc(-c3ccc(C)o3)nc3ccccc23)c1`, the EC50 with 2B4/MCL-1 and in the experiment on 2B4/BCL-2 was 40 µM each time.
Turning to `CN(C)C(=O)c1ccc(NC(=O)c2cc(-c3ccco3)nc3ccccc23)cc1`, the EC50 with 2B4/MCL-1 and in the experiment with 2B4/BCL-2 was above 25 µM in each case.
For `COc1ccc(Cc2nnc(NC(=O)Cc3c[nH]c4ccccc34)s2)cc1OC`, the EC50 in the experiment on 2B4/MCL-1 and with 2B4/BCL-2 was above 25 µM each time.
Regarding `COc1ccc(Cc2nnc(NC(=O)Cc3ccc4ccccc4c3)s2)cc1OC`, the EC50 in the experiment with 2B4/MCL-1 and in the experiment with 2B4/BCL-2 was above 25 µM throughout.
For the compound `COc1ccc(Cc2nnc(CC(=O)Nc3cccs3)s2)cc1`, the EC50 with 2B4/MCL-1 and with 2B4/BCL-2 was above 25 µM throughout.
Take `O=C(c1cc(-c2ccco2)nc2ccccc12)N1CCN(Cc2ccccc2)CC1`: the EC50 with 2B4/MCL-1 and with 2B4/BCL-2 was above 25 µM in each case.
In the case of `Cc1ccc(-c2cc(C(=O)Nc3ccccc3C(N)=O)c3ccccc3n2)o1`, the EC50 in the experiment on 2B4/MCL-1 and in the experiment with 2B4/BCL-2 was above 25 µM throughout.
As to `COc1ccc(Cc2nnc(NC(=O)Cc3cc(F)cc(F)c3)s2)cc1OC`, the EC50 in the experiment with 2B4/MCL-1 and in the experiment on 2B4/BCL-2 was above 25 µM throughout.
`CCCCCCNC(=O)c1cc(-c2ccco2)nc2ccccc12`: the EC50 in the experiment on 2B4/MCL-1 and with 2B4/BCL-2 was above 25 µM throughout.
In the case of `COc1ccc(NC(=O)c2cc(-c3ccco3)nc3ccccc23)cc1S(=O)(=O)N1CCOCC1`, the EC50 with 2B4/MCL-1 and in the experiment on 2B4/BCL-2 was above 25 µM each time.
Regarding `COc1ccccc1NC(=O)c1cc(-c2ccc(C)o2)nc2ccccc12`, the EC50 in the experiment with 2B4/MCL-1 and in the experiment with 2B4/BCL-2 was above 25 µM throughout.
As for `O=C(c1cc(-c2ccco2)nc2ccccc12)N1CCN(c2ccc(F)cc2)CC1`, the EC50 with 2B4/MCL-1 and in the experiment on 2B4/BCL-2 was above 25 µM throughout.
As to `O=C(Cc1cccs1)Nc1nnc(Cc2ccccc2)s1`, the EC50 in the experiment with 2B4/MCL-1 and with 2B4/BCL-2 was above 25 µM each time.
In the case of `CN(CCOc1ccccc1)C(=O)c1cc(-c2ccco2)nc2ccccc12`, the EC50 with 2B4/MCL-1 and in the experiment on 2B4/BCL-2 was above 25 µM throughout.
Take `COc1cccc(NC(=O)c2cc(-c3ccc(C)o3)nc3ccccc23)c1`: the EC50 in the experiment with 2B4/MCL-1 and in the experiment with 2B4/BCL-2 was above 25 µM each time.
`COc1ccc(Cc2nnc(NC(=O)c3cc(-c4ccco4)nc4ccc(Br)cc34)s2)cc1OC`: the EC50 came to 11 µM in the experiment with 2B4/MCL-1 and 7.5 µM in the experiment with 2B4/BCL-2.
Taken in the same sequence, the figures for `COc1ccc(Cc2nnc(NC(=O)Cc3ccncc3)s2)cc1OC` were above 25 µM and above 25 µM.
The like results for `CCN(CC)C(=O)COc1ccc2c(-c3ccc(OC)cc3)cc(=O)oc2c1C` were, in that order, above 25 µM and above 25 µM.
Taken in the same sequence, the figures for `CCCCn1c(N)c(N(CCOC)C(=O)c2cc(-c3ccco3)nc3ccccc23)c(=O)[nH]c1=O` were above 25 µM and above 25 µM.
As for `CCOC(=O)C1CCCN(C(=O)c2cc(-c3ccco3)nc3ccccc23)C1` (configuration not stated), the EC50 in the experiment on 2B4/MCL-1 and in the experiment on 2B4/BCL-2 was above 25 µM each time.
Consider `COc1ccc(Cc2nnc(NC(=O)Cc3cccc(Br)c3)s2)cc1OC`, for which the EC50 with 2B4/MCL-1 and in the experiment on 2B4/BCL-2 was above 25 µM each time.
`CCN(CC)C(=O)COc1ccc2c(-c3ccccc3)cc(=O)oc2c1`: the concentration for a half-maximal effect (EC50) with 2B4/MCL-1 and in the experiment on 2B4/BCL-2 was above 25 µM throughout.
For the compound `COc1ccc(NC(=O)c2cc(-c3ccc(C)o3)nc3ccccc23)c(OC)c1`, the EC50 in the experiment on 2B4/MCL-1 and in the experiment on 2B4/BCL-2 was above 25 µM in each case.
For the compound `COc1ccc(Cc2nnc(NC(=O)Cc3ccc4c(c3)OCO4)s2)cc1OC`, the EC50 in the experiment with 2B4/MCL-1 and in the experiment on 2B4/BCL-2 was above 25 µM in each case.
`CCC(=O)Nc1nnc(Cc2ccccc2)s1`: the EC50 in the experiment on 2B4/MCL-1 and in the experiment with 2B4/BCL-2 was above 25 µM throughout.
`COc1cccc(NC(=O)c2cc(-c3ccco3)nc3ccccc23)c1`: the concentration for a half-maximal effect (EC50) in the experiment with 2B4/MCL-1 and with 2B4/BCL-2 was above 25 µM in each case.
Take `Cc1ccc(-c2cc(C(=O)N3CC(C)OC(C)C3)c3ccccc3n2)o1` (configuration not stated): the EC50 with 2B4/MCL-1 and with 2B4/BCL-2 was above 25 µM throughout.

By EC50 is commonly meant the midpoint of the concentration-response curve. Low values mean an effect from little substance, high ones a need for much substance.
